{
  "source": "paper PMC6100073",
  "about": "“Activation of Anthracene Endoperoxides in Leishmania and Impairment of Mitochondrial Functions” (Molecules : A Journal of Synthetic Chemistry and Natural …, 2018)",
  "key": {"LtP [1]": {"system": "LtP", "assay": "EPR (CMH oxidation): superoxide formation in LtP", "format": "cell-based, Leishmania tarentolae", "conditions": "20 µM AA or 100 µM other compounds, 500 × 10^6 LtP/mL, 400 µM CMH, DFO, DTPA, 5 min, 25 °C", "description": "To measure superoxide radical (O2^•−) formation induced by AcEPs in LtP, EPR spectroscopy was used. An aliquot of the cell broth was transferred into an Eppendorf tube that was centrifuged (Hettich Universal 16, 20 °C, 2000× g, 10 min). The supernatant was discarded, the cell pellet was resuspended in PBS and centrifuged again. After removal of the supernatant, the cell pellet was resuspended in a mixture of PBS, 15 mM glucose (PBS/Glu), DFO (100 µM), and DTPA (25 µM). […] The cell suspension was aliquoted. CMH was added as detection agent leading to a final concentration of 400 µM. After 5 min of incubation at 25 °C, the respective substance was added resulting in final concentrations of 20 µM antimycin A (AA) or 100 µM of AcEP1117, AcEP1118, AcEP1129, AcEP1130, Ac, and AQ. Samples containing LtP and CMH were used as negative control. Samples containing PBS/Glu and CMH were used as negative control as well. After 5 min of incubation at 25 °C with the respective substance, aliquots of 17 µL of the cell suspensions were aspirated into a PTFE tube (outer diameter 0.7 mm). The tube was transferred into the MD5 resonator of the EPR spectrometer. Immediately, the measurement was started using the following parameters: microwave frequency 9.684 GHz; microwave power 20 mW, modulation frequency 100 kHz; modulation amplitude 1 G; time constant 0.82 s; center field 3449 G; scan rate 14 G/min; sweep width 100 G; scan time 419 s; attenuation 2.52 × 10^4; and scans 5."}, "LtP [2]": {"system": "LtP", "assay": "EPR spin trapping (DMPO): activation of AcEPs by LtP", "format": "cell-based, Leishmania tarentolae", "conditions": "500 µM compound, 2 × 10^9 LtP/mL, 40 mM DMPO, 15 min, no added iron", "description": "To detect the radicals derived from AcEPs in LtP, EPR experiments were performed using DMPO as spin trap. Aliquots of the cell broth were transferred into Sarstedt tubes that were centrifuged (20 °C, 1800× g, 10 min), and the supernatants were discarded. Then the cell pellets were resuspended in PBS and centrifuged again. After removal of the supernatants, the cell pellets were resuspended in a mixture of PBS containing glucose (15 mM), giving a final cell number of 2 × 10^9 LtP/mL. Aliquots (150 µL) were incubated in 1.5 mL Eppendorf tubes with aeration holes. The cells were incubated with DMPO (40 mM) for 5 min at 26 °C, and after addition of 500 µM of the respective substance (Asc, AcEP1117, AcEP1118, AcEP1129, AcEP1130, Ac or AQ), the samples were incubated for additional 15 min at 26 °C under constant agitation (agitation speed: 0.3 s^−1). Control samples containing LtP, LtP and DMSO (1.27%, v/v), or PBS/glucose alone were incubated with 40 mM DMPO under the same conditions. Cell samples containing DMPO that were treated with Asc served as positive control. Samples treated with Ac or AQ were used as negative controls. Subsequently, 50 µL of the samples were aspirated into glass capillaries and transferred in the MD5 resonator of the EPR spectrometer. The samples were measured immediately using the following instrument settings: microwave frequency 9.684 GHz; microwave power 20 mW, modulation frequency 100 kHz; modulation amplitude 2 G; time constant 0.164 s; center field 3449 G; scan rate 71 G/min; sweep width 100 G; scan time 84 s; attenuation 8.93 × 10^5; and scans 3."}, "[3]": {"assay": "Xylenol orange assay: reaction of endoperoxides with Fe2+", "conditions": "50 µM compound, 250 µM FeSO4, 125 µM xylenol orange, methanol/H2O (9:1 v/v)", "description": "Xylenol orange (XO) (125 µM) and butylated hydroxytoluene (4 mM) were dissolved in methanol/H2O (9:1, v/v). FeSO4 (25 mM) in 2.5 M H2SO4 was prepared immediately before use and added, giving a final concentration of 250 µM FeSO4 in the samples. An aliquot of 100 µL EP solution (final concentration of 50 µM) was transferred into a disposable 1.5 mL cuvette (BRAND, Wertheim, Germany), and 1 mL of the color reagent was added. […] At these time points, the OD difference of the sample at 560 nm and 650 nm was determined using a MS1501 UV-vis diode array spectrophotometer (Shimadzu, Japan). As reference, a mixture of methanol/H2O (9:1, v/v) was used. […] The slope of the reaction rate was calculated using an extinction coefficient of the complex of 1.5 × 10^4 M^−1 cm^−1."}, "LtP [4]": {"system": "LtP", "assay": "Uncoupling of LtP respiration in presence of oligomycin (OxoPlates)", "format": "cell-based, Leishmania tarentolae", "conditions": "38 µM Oligo", "description": "The uncoupling experiments using OxoPlates were carried out in analogy to oxygen consumption measurements of LtP. An oligomycin (Oligo) premix in aBHI was prepared leading to a final concentration of 38 µM oligomycin (Oligo). Each well of the second row was filled with 50 µL of aBHI. From the third row on, each well was filled with 50 µL of the Oligo premix and to the fourth row additional 50 µL Oligo premix was added. The respective amounts of the substances (Ac, AQ, AcEP1117, AcEP1118, AcEP1129, AcEP1130, CCCP) were added and a serial 1:2 dilution was performed. Measurements were carried out as described above. The oxygen consumption rates were normalized to the wells that contained only LtP. For each concentration measurements were done in triplicates."}},
  "data": [
    {"molecule": "CCCCCC[C@H]1C(=O)O[C@H](C)[C@H](NC(=O)c2cccc(NC=O)c2O)C(=O)O[C@@H](C)[C@@H]1OC(=O)CC(C)C", "note": "[AA, antimycin A, reference compound]", "values": [
      {"measurement": "CMH oxidation (superoxide radical formation) in LtP", "setting": "LtP [1]", "result": "triggered additional CMH oxidation in LtP"}
    ]},
    {"molecule": "CC(C)C12C=CC(C)(CC1)OO2", "note": "(centres unmarked) [Asc, ascaridole, reference compound]", "values": [
      {"measurement": "DMPO spin adduct formation in LtP (EPR)", "setting": "LtP [2]", "result": "showed DMPO spin adducts of carbon-centered radicals"},
      {"measurement": "Slope (nM·min^−1) Mean ± SD of XO/Fe^3+ complex formation", "setting": "[3]", "result": "608 ± 52", "unit": "nM/min"}
    ]},
    {"molecule": "N#CC(C#N)=NNc1cccc(Cl)c1", "note": "[CCCP, carbonyl cyanide m-chlorophenylhydrazone]", "values": [
      {"measurement": "uncoupling effect (recovery of O2 consumption in the presence of Oligo)", "setting": "LtP [4]; 0.31–5.0 µM CCCP or 12.5–200.0 µM other compounds", "result": "a recovery of O2 consumption in the presence of Oligo was observed"}
    ]},
    {"molecule": "CC[C@H]1/C=C/C=C/C[C@@H](C)[C@H](O)[C@@](C)(O)C(=O)[C@@H](C)[C@H](O)[C@@H](C)C(=O)[C@@H](C)[C@H](O)[C@@H](C)/C=C/C(=O)O[C@@H]2[C@H](C)[C@H](CC1)O[C@]1(CC[C@H](C)[C@H](C[C@@H](C)O)O1)[C@H]2C", "note": "[Oligo, oligomycin]", "values": [
      {"measurement": "oxygen consumption rate compared to untreated LtP", "setting": "LtP [4]; 140 × 10^6 LtP/mL", "result": "about 60%"}
    ]}
  ]
}
